Columns and labels:
[1] = molecular target: T1, HiBit-BRM fusion protein (Homo sapiens, UniProt P51531); assay: HiBiT-BRM cell-based degradation assay (Nano-Glo HiBiT Lytic Detection, 24 h); details: HeLa cell line expressing HiBiT-BRM; for DC50: read-out: BRM HiBit Degradation IC50
T1 construct: expressed in transfected cells
Summary of the method: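 HeLa cells stably expressing HiBiT-BRM were dosed with compounds (10-point 3-fold dilutions, 30 μM final top dose, duplicate) for 24 h. HiBiT signal was read by lytic LgBiT complementation luminescence. Percent degradation was normalised to DMSO (high control) and 2 μM of a reference BRM/BRG1 degrader (low control).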

[2] = molecular target: T2, HiBit-BRG1 fusion protein (Homo sapiens, UniProt P51532); assay: HiBiT-BRG1 cell-based degradation assay (Nano-Glo HiBiT Lytic Detection, 24 h); details: HeLa cell line expressing HiBit-BRG1 and LgBit; for Dmax: read-out: BRG1 HiBit Degradation Maximum (%); for DC50: read-out: BRMG1 HiBit Degradation IC50
T2 construct: expressed in transfected cells
Summary of the method: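 Seed 5000 HeLa HiBit-BRG1/LgBit cells per well; treat 24 h; equilibrate 15 min at room temperature; add Nano-Glo HiBiT lytic reagent, shake 10 min, read luminescence. Percent degradation is scaled between DMSO and 2 μM reference degrader wells.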

T2 sequence (P51532 whole entry, the tested form may be a part): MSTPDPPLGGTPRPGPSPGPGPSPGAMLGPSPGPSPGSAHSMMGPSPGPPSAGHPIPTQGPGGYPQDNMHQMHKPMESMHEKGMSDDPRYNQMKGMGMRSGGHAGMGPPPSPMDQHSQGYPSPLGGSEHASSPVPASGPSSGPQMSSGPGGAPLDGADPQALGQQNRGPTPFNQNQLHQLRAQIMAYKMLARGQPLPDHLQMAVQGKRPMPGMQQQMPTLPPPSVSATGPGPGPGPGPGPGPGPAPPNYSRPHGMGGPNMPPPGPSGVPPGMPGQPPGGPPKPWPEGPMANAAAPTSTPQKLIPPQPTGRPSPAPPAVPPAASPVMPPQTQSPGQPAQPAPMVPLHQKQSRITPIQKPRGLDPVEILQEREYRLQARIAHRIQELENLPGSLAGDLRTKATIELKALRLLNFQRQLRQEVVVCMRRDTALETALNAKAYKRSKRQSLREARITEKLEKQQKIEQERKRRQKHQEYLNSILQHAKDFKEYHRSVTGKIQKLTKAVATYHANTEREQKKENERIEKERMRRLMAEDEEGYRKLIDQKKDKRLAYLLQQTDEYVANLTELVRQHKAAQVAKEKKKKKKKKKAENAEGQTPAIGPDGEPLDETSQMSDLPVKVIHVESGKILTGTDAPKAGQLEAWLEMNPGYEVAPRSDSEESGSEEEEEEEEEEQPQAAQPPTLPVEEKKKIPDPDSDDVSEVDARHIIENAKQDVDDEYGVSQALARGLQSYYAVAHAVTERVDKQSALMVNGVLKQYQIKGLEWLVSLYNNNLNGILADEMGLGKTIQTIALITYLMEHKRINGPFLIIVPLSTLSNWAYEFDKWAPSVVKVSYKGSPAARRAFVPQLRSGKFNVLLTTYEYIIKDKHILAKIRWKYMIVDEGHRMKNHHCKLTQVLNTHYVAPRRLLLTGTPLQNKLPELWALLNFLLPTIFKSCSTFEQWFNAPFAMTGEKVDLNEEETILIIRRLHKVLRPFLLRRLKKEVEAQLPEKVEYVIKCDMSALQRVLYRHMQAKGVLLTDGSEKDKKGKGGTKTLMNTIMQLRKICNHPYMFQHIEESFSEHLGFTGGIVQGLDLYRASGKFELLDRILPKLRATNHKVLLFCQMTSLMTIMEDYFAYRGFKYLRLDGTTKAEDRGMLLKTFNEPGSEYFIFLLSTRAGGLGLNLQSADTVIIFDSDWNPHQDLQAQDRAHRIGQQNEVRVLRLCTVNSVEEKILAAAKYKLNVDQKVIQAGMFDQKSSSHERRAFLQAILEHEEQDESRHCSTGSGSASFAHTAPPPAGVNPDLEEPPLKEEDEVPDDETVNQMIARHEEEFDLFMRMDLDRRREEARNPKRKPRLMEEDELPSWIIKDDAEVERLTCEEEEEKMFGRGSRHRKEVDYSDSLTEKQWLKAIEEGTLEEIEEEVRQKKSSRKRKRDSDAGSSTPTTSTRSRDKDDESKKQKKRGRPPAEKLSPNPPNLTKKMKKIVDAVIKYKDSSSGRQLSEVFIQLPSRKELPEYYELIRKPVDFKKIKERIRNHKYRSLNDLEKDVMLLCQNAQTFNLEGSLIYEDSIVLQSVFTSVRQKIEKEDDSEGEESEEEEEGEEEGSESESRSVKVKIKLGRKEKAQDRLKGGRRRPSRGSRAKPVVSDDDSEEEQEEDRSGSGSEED
T1 sequence (P51531 whole entry, the tested form may be a part): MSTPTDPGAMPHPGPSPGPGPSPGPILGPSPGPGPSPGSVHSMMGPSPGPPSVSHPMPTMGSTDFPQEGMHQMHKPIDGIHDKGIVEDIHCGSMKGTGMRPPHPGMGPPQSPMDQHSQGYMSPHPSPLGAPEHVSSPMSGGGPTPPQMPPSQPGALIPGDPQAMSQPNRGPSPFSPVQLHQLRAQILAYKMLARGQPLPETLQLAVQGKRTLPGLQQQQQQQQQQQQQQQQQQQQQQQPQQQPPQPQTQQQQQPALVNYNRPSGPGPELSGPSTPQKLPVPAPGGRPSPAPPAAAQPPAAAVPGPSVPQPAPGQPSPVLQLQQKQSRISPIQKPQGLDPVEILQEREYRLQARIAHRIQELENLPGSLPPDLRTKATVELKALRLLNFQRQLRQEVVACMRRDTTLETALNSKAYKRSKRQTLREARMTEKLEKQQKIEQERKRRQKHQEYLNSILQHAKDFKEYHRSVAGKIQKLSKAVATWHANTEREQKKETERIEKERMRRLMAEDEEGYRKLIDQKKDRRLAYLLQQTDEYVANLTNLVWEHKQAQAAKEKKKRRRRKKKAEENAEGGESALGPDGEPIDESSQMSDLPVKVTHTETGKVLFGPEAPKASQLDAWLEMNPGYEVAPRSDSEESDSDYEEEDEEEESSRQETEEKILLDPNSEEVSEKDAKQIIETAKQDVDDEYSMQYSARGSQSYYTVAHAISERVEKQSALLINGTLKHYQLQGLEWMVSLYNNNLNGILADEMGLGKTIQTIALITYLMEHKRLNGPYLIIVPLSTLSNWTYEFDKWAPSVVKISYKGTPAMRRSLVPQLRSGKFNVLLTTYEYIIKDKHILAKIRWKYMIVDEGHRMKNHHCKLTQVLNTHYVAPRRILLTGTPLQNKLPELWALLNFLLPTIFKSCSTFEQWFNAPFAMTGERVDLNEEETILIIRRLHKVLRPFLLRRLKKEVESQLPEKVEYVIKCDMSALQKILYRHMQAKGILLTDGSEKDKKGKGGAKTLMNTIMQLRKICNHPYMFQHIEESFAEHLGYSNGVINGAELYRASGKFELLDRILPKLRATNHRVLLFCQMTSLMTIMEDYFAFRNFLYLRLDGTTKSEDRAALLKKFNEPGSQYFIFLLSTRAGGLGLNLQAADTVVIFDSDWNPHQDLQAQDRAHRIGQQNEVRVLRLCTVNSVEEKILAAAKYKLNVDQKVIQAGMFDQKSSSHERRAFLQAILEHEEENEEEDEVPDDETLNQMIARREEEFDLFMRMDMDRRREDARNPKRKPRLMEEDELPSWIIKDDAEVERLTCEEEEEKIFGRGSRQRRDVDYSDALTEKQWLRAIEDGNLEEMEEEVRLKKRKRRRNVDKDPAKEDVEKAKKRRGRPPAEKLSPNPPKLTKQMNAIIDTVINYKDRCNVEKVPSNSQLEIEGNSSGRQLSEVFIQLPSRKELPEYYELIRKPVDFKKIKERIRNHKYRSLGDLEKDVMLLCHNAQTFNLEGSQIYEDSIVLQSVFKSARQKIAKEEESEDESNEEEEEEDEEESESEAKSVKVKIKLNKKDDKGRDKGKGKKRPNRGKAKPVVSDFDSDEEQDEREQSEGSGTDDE

Structure (SMILES)	DC50 [1]	Dmax [2]	DC50 [2]	BRM HiBit Degradation Maximum (%) [1]
Cc1ncsc1-c1ccc([C@H](C)NC(=O)[C@@H]2C[C@@H](O)CN2C(=O)[C@@H](c2cc(N3C[C@@H]4C[C@H]3CN4C(=O)[C@H]3C[C@]4(Cc5cc(-c6ccccc6O)nnc5N4)C3)no2)C(C)C)cc1 (racemic) [Compound 78, (2S,4R)-4-hydroxy-1-((R)-2-(3-((1S,4S)-5-((1R,3r)-3′-(2-hydroxyphenyl)-5′,7′-dihydrospiro[cyclobutane-1,6′-pyrrolo[2,3-c]pyridazine]-3-carbonyl)-2,5-diazabicyclo[2.2.1]heptan-2-yl)isoxazol-5-yl)-3-methylbutanoyl)-N-((S)-1-(4-(4-methylthiazol-5-yl)phenyl)ethyl)pyrrolidine-2-carboxamide]	> 0.1 µM	< 50%		A (“A” indicates maximum degradation ≥ 75%)
Cc1ncsc1-c1ccc([C@H](C)NC(=O)[C@@H]2C[C@@H](O)CN2C(=O)[C@@H](c2cc(N3C[C@H]4C[C@@H]3CN4C(=O)[C@H]3C[C@@]4(Cc5cc(-c6ccccc6O)nnc5N4)C3)no2)C(C)C)cc1 (racemic) [Compound 79, (2S,4R)-4-hydroxy-1-((R)-2-(3-((1R,4R)-5-((1R,3s)-3′-(2-hydroxyphenyl)-5′,7′-dihydrospiro[cyclobutane-1,6′-pyrrolo[2,3-c]pyridazine]-3-carbonyl)-2,5-diazabicyclo[2.2.1]heptan-2-yl)isoxazol-5-yl)-3-methylbutanoyl)-N-((S)-1-(4-(4-methylthiazol-5-yl)phenyl)ethyl)pyrrolidine-2-carboxamide]		< 50%		C (“C” indicates maximum degradation < 50%)
Cc1ncsc1-c1ccc([C@H](C)NC(=O)[C@@H]2C[C@@H](O)CN2C(=O)[C@@H](c2cc(N3CCN(C(=O)[C@H]4C[C@@]5(Cc6cc(-c7ccccc7O)nnc6N5)C4)CC3)no2)C(C)C)cc1 (racemic) [Compound 80, (2S,4R)-4-hydroxy-1-((R)-2-(3-(4-((1R,3s)-3′-(2-hydroxyphenyl)-5′,7′-dihydrospiro[cyclobutane-1,6′-pyrrolo[2,3-c]pyridazine]-3-carbonyl)piperazin-1-yl)isoxazol-5-yl)-3-methylbutanoyl)-N-((S)-1-(4-(4-methylthiazol-5-yl)phenyl)ethyl)pyrrolidine-2-carboxamide]	> 0.01 µM	< 50%		A (“A” indicates maximum degradation ≥ 75%)
Cc1ncsc1-c1ccc([C@H](C)NC(=O)[C@@H]2C[C@@H](O)CN2C(=O)[C@@H](c2cc(N3CCC(CN4CCc5[nH]c6nnc(-c7ccccc7O)cc6c5[C@H]4C)CC3)no2)C(C)C)cc1 (racemic) [Compound 81, (2S,4R)-4-hydroxy-1-[(2R)-2-[3-(4-{[(3R)-12-(2-hydroxyphenyl)-3-methyl-4,8,10,11-tetraazatricyclo[7.4.0.0^{2,7}]trideca-1(13),2(7),9,11-tetraen-4-yl]methyl}piperidin-1-yl)-1,2-oxazol-5-yl]-3-methylbutanoyl]-N-[(1S)-1-[4-(4-methyl-1,3-thiazol-5-yl)phenyl]ethyl]pyrrolidine-2-carboxamide]	> 0.01 µM	> 75%	> 0.1 µM	A (“A” indicates maximum degradation ≥ 75%)
Cc1ncsc1-c1ccc([C@H](C)NC(=O)[C@@H]2C[C@@H](O)CN2C(=O)[C@@H](c2cc(N3CCC(C(=O)N4CCc5[nH]c6nnc(-c7ccccc7O)cc6c5[C@H]4C)CC3)no2)C(C)C)cc1 (racemic) [Compound 82, (2S,4R)-4-hydroxy-1-((R)-2-(3-(4-((R)-3-(2-hydroxyphenyl)-5-methyl-6,7,8,9-tetrahydro-5H-pyrido[3′,4′:4,5]pyrrolo[2,3-c]pyridazine-6-carbonyl)piperidin-1-yl)isoxazol-5-yl)-3-methylbutanoyl)-N-((S)-1-(4-(4-methylthiazol-5-yl)phenyl)ethyl)pyrrolidine-2-carboxamide]	< 0.01 µM	> 75%	> 0.1 µM	A (“A” indicates maximum degradation ≥ 75%)
Cc1ncsc1-c1ccc([C@H](C)NC(=O)[C@@H]2C[C@@H](O)CN2C(=O)[C@@H](c2cc(N3CCC(CN4CCc5[nH]c6nnc(-c7ccccc7O)cc6c5[C@@H]4C)CC3)no2)C(C)C)cc1 (racemic) [Compound 83, (2S,4R)-4-hydroxy-1-[(2R)-2-[3-(4-{[(3S)-12-(2-hydroxyphenyl)-3-methyl-4,8,10,11-tetraazatricyclo[7.4.0.0^{2,7}]trideca-1(13),2(7),9,11-tetraen-4-yl]methyl}piperidin-1-yl)-1,2-oxazol-5-yl]-3-methylbutanoyl]-N-[(1S)-1-[4-(4-methyl-1,3-thiazol-5-yl)phenyl]ethyl]pyrrolidine-2-carboxamide]	> 0.01 µM	> 75%	> 0.01 µM	A (“A” indicates maximum degradation ≥ 75%)
Cc1ncsc1-c1ccc([C@H](C)NC(=O)[C@@H]2C[C@@H](O)CN2C(=O)[C@@H](c2cc(OCCCN3CC4(Cc5cc(-c6ccccc6O)nnc5N4)C3)no2)C(C)C)cc1 (racemic) [Compound 84, (2S,4R)-4-hydroxy-1-((R)-2-(3-(3-(3′-(2-hydroxyphenyl)-5′,7′-dihydrospiro[azetidine-3,6′-pyrrolo[2,3-c]pyridazin]-1-yl)propoxy)isoxazol-5-yl)-3-methylbutanoyl)-N-((S)-1-(4-(4-methylthiazol-5-yl)phenyl)ethyl)pyrrolidine-2-carboxamide]		< 50%		C (“C” indicates maximum degradation < 50%)

Second part, led by results:

DC50 [1]	Dmax [2]	DC50 [2]	Structure (SMILES)	BRM HiBit Degradation Maximum (%) [1]
> 0.1 µM	< 50%		Cc1ncsc1-c1ccc([C@H](C)NC(=O)[C@@H]2C[C@@H](O)CN2C(=O)[C@@H](c2cc(N3CCC(C(=O)N4CCc5[nH]c6nnc(-c7ccccc7O)cc6c5[C@@H]4C)CC3)no2)C(C)C)cc1 (racemic) [Compound 86, (2S,4R)-4-hydroxy-1-((R)-2-(3-(4-((S)-3-(2-hydroxyphenyl)-5-methyl-6,7,8,9-tetrahydro-5H-pyrido[3′,4′:4,5]pyrrolo[2,3-c]pyridazine-6-carbonyl)piperidin-1-yl)isoxazol-5-yl)-3-methylbutanoyl)-N-((S)-1-(4-(4-methylthiazol-5-yl)phenyl)ethyl)pyrrolidine-2-carboxamide]	A (“A” indicates maximum degradation ≥ 75%)
	< 50%		Cc1ncsc1-c1ccc([C@H](C)NC(=O)[C@@H]2C[C@@H](O)CN2C(=O)[C@@H](c2cc(N(C)CCN3CC4(Cc5cc(-c6ccccc6O)nnc5N4)C3)no2)C(C)C)cc1 (racemic) [Compound 87, (2S,4R)-4-hydroxy-1-((R)-2-(3-((2-(3′-(2-hydroxyphenyl)-5′,7′-dihydrospiro[azetidine-3,6′-pyrrolo[2,3-c]pyridazin]-1-yl)ethyl)(methyl)amino)isoxazol-5-yl)-3-methylbutanoyl)-N-((S)-1-(4-(4-methylthiazol-5-yl)phenyl)ethyl)pyrrolidine-2-carboxamide]	C (“C” indicates maximum degradation < 50%)
> 0.01 µM	> 75%	> 0.1 µM	Cc1ncsc1-c1ccc(CNC(=O)[C@@H]2C[C@@H](O)CN2C(=O)[C@@H](NC(=O)[C@H]2CC[C@H](c3cnc(N4CCC(c5cc6cc(-c7ccccc7O)nnc6[nH]5)CC4)nc3)CC2)C(C)(C)C)cc1 (racemic) [Compound 93, (2S,4R)-4-hydroxy-1-((S)-2-((1r,4S)-4-(2-(4-(3-(2-hydroxyphenyl)-7H-pyrrolo[2,3-c]pyridazin-6-yl)piperidin-1-yl)pyrimidin-5-yl)cyclohexane-1-carboxamido)-3,3-dimethylbutanoyl)-N-(4-(4-methylthiazol-5-yl)benzyl)pyrrolidine-2-carboxamide]	A (“A” indicates maximum degradation ≥ 75%)
> 0.01 µM	< 50%		Cc1ncsc1-c1ccc(CNC(=O)[C@@H]2C[C@@H](O)CN2C(=O)[C@@H](NC(=O)[C@H]2CC[C@@H](c3cnc(N4CCC(c5cc6cc(-c7ccccc7O)nnc6[nH]5)CC4)nc3)CC2)C(C)(C)C)cc1 (racemic) [Compound 94, (2S,4R)-4-hydroxy-1-((S)-2-((1s,4R)-4-(2-(4-(3-(2-hydroxyphenyl)-7H-pyrrolo[2,3-c]pyridazin-6-yl)piperidin-1-yl)pyrimidin-5-yl)cyclohexane-1-carboxamido)-3,3-dimethylbutanoyl)-N-(4-(4-methylthiazol-5-yl)benzyl)pyrrolidine-2-carboxamide]	A (“A” indicates maximum degradation ≥ 75%)
> 1 µM	< 50%		Cc1ncsc1-c1ccc([C@H](C)NC(=O)[C@@H]2C[C@@H](O)CN2C(=O)[C@@H](c2cc(OCC(=O)N3CC4(Cc5cc(-c6ccccc6O)nnc5N4)C3)no2)C(C)C)cc1 (racemic) [Compound 95, (2S,4R)-4-hydroxy-1-((R)-2-(3-(2-(3′-(2-hydroxyphenyl)-5′,7′-dihydrospiro[azetidine-3,6′-pyrrolo[2,3-c]pyridazin]-1-yl)-2-oxoethoxy)isoxazol-5-yl)-3-methylbutanoyl)-N-((S)-1-(4-(4-methylthiazol-5-yl)phenyl)ethyl)pyrrolidine-2-carboxamide]	B (“B” indicates maximum degradation ≥ 50%)
